In US20060286670A1, “Transplant acceptance inducing cells of monocytic origin and their preparation and use” (BLASTICON BIOTECHNOLOGISCHE FORSCHUNG GMBH, priority 2002, published 2006):

Tested on: PHA-stimulated lymphocytes
Experiment: Mixed lymphocyte culture of PHA-stimulated lymphocytes and TAIC, 3[H]-thymidine incorporation
Format: cell-based, human
Settings: 2 μmol 1-MT
Experimental: In order to clarify, whether the inhibitor of the enzyme indolamine-2,3-dioxygenase (IDO) 1-methyltryptophane (1-MT) influences the suppressor function of the TAIC generated in the “Mo” and “Mo+Ly” set ups (see Example 11), a variety of mixed lymphocyte cultures (MLC) with PHA (phytohaemagglutinine) stimulated T-cells in the presence and in the absence of 1-MT were established.
In these mixed lymphocyte cultures 50.000 lymphocytes with 2 μg […] were transferred into the wells of a 96-well-plate, followed by a proliferation period over 144 hours (indicated as “PhaLy”). Lymphocytes only cultivated in medium without addition of PHA were run as a further control (indicated as “Ly”).
In order to determine the proliferation of PHA-stimulated lymphocytes in the different co-cultures, the following 4 set ups were run and examined:
In this arrangement, the amount of the radio activity determined is a measure for the amount of labeled thymidine incorporated into the DNA, and therefore a measure for the proliferation rate of the lymphocytes. The values reported in FIG. 8 correspond to mean values from triple determinations of 3 experiments each with indication of the standard deviation.

Cn1cc(C[C@H](N)C(=O)O)c2ccccc21 [1-MT, 1-methyltryptophane]
influence on the suppressor function of the TAIC: increases the suppressor function of the TAIC synergistically
